Common to all, as to format: functional
Assay [1] has as its system Aspergillus flavus. The assay can be described thus: Antimicrobial activity against Aspergillus flavus after 72 to 96 hr by two-fold serial dilution method.
Assay [2] has as its system Rhizopus. The assay can be described thus: Antimicrobial activity against Rhizopus sp. after 72 to 96 hr by two-fold serial dilution method.
Assay [3] concerns Aspergillus niger. The assay can be described thus: Antimicrobial activity against Aspergillus niger after 72 to 96 hr by two-fold serial dilution method.
The test system of assay [4] is Candida albicans. The assay can be described thus: Antimicrobial activity against Candida albicans after 72 to 96 hr by two-fold serial dilution method.
The test system of assay [5] is Pseudomonas aeruginosa. The assay can be described thus: Antimicrobial activity against Pseudomonas aeruginosa after 24 hr by two-fold serial dilution method.
The subject of assay [6] is Salmonella typhi. The assay can be described thus: Antimicrobial activity against Salmonella enterica subsp. enterica serovar Typhi after 24 hr by two-fold serial dilution method.
Assay [7] concerns Escherichia coli. The assay can be described thus: Antimicrobial activity against Escherichia coli after 24 hr by two-fold serial dilution method.
For assay [8], the system named is Staphylococcus aureus. The assay can be described thus: Antimicrobial activity against Staphylococcus aureus after 24 hr by two-fold serial dilution method.

MIC data for eight compounds are collected here from ChEMBL document CHEMBL3045683, “Synthesis, characterisation and antimicrobial activities of novel 7,9-diphenyl-1,2,4-triaza-8-oxa-spiro[4.5]-decan-3-thiones” (2011).

Values after ≈ are worked out from the molar mass of the structure shown.

In general, MIC refers to the smallest concentration in the dilution series that meets the test's criterion for growth inhibition. The low end stands for greater potency, the high end for weaker potency. On to `CCC1C(c2ccccc2)OC(c2ccccc2)CC12NC(=S)NN2c1ccccc1` (centres undefined), for which the minimum inhibitory concentration (MIC) in assay [1] came to 50 µg/mL (≈ 116 µM); in assay [2], 12.5 µg/mL (≈ 29.1 µM); in assay [3] it was 25 µg/mL (≈ 58.2 µM); in assay [4], 25 µg/mL (≈ 58.2 µM); in assay [5] it was 12.5 µg/mL (≈ 29.1 µM); in assay [6], 25 µg/mL (≈ 58.2 µM). Besides, the figures for the MIC in assay [7] and in assay [8] were 12.5 µg/mL (≈ 29.1 µM) and 25 µg/mL (≈ 58.2 µM), respectively.

As for `CC1C(c2ccccc2)OC(c2ccccc2)CC12NC(=S)NN2c1ccccc1` (centres undefined), the MIC worked out at 12.5 µg/mL (≈ 30.1 µM) in assay [1]; 25 µg/mL (≈ 60.2 µM) in assay [2]; 25 µg/mL (≈ 60.2 µM) in assay [3]; 50 µg/mL (≈ 120 µM) in assay [4]; 25 µg/mL (≈ 60.2 µM) in assay [5]; 25 µg/mL (≈ 60.2 µM) in assay [6]. Besides, the figures for the MIC in assay [7] and in assay [8] were 12.5 µg/mL (≈ 30.1 µM) and 25 µg/mL (≈ 60.2 µM), respectively.

As for `S=C1NN(c2ccccc2)C2(CC(c3ccccc3)OC(c3ccccc3)C2)N1` (centres undefined), the MIC is 12.5 µg/mL (≈ 31.1 µM) in assay [1]; 12.5 µg/mL (≈ 31.1 µM) in assay [2]; 50 µg/mL (≈ 125 µM) in assay [3]; 50 µg/mL (≈ 125 µM) in assay [4]; 25 µg/mL (≈ 62.3 µM) in assay [5]; 50 µg/mL (≈ 125 µM) in assay [6]. Further, the MIC in assay [7] and in assay [8] was 50 µg/mL (≈ 125 µM) each time.

In the case of `CCC1C(c2ccccc2)OC(c2ccccc2)CC12NNC(=S)N2` (centres undefined), the minimal inhibitory concentration (MIC) came to 50 µg/mL (≈ 141 µM) in assay [1]; 100 µg/mL (≈ 283 µM) in assay [2]; 25 µg/mL (≈ 70.7 µM) in assay [3]; 100 µg/mL (≈ 283 µM) in assay [4]; 100 µg/mL (≈ 283 µM) in assay [5]; 25 µg/mL (≈ 70.7 µM) in assay [6]. For the same compound, the minimum inhibitory concentration (MIC) worked out at 100 µg/mL (≈ 283 µM) in assay [7] and 50 µg/mL (≈ 141 µM) in assay [8].

As for `CC1C(c2ccccc2)OC(c2ccccc2)CC12NNC(=S)N2` (centres undefined), the MIC in assay [1] came out at 50 µg/mL (≈ 147 µM); in assay [2] it was 25 µg/mL (≈ 73.6 µM); in assay [3], 50 µg/mL (≈ 147 µM); in assay [4], 100 µg/mL (≈ 295 µM); in assay [5] it was 50 µg/mL (≈ 147 µM); in assay [6], 100 µg/mL (≈ 295 µM). Also, the results for the MIC in assay [7] and in assay [8] were 100 µg/mL (≈ 295 µM) and 25 µg/mL (≈ 73.6 µM), respectively.

Regarding `S=C1NNC2(CC(c3ccccc3)OC(c3ccccc3)C2)N1` (centres undefined), the MIC in assay [1] was found to be 100 µg/mL (≈ 307 µM); in assay [2], 100 µg/mL (≈ 307 µM); in assay [3], 50 µg/mL (≈ 154 µM); in assay [4] it was 200 µg/mL (≈ 615 µM); in assay [5], 100 µg/mL (≈ 307 µM); in assay [6], 25 µg/mL (≈ 76.8 µM). Also, the MIC in assay [7] was 50 µg/mL (≈ 154 µM); in assay [8], 12.5 µg/mL (≈ 38.4 µM).

`C[C@@H]1[C@H](O)[C@@H](C)/C=C/C=C/C=C/C=C/C=C/C=C/C=C/[C@H](O[C@@H]2O[C@H](C)[C@@H](O)[C@H](N)[C@@H]2O)C[C@@H]2O[C@](O)(C[C@@H](O)C[C@@H](O)[C@H](O)CC[C@@H](O)C[C@@H](O)CC(=O)O[C@H]1C)C[C@H](O)[C@H]2C(=O)O` [AMPHOTERICIN B]: the MIC in assay [1] was determined as 50 µg/mL (≈ 54.1 µM); in assay [2], 25 µg/mL (≈ 27.1 µM); in assay [3], 50 µg/mL (≈ 54.1 µM); in assay [4] it was 25 µg/mL (≈ 27.1 µM).

Consider `O=C(O)c1cn(C2CC2)c2cc(N3CCNCC3)c(F)cc2c1=O` [CIPROFLOXACIN], for which the MIC in assay [6] came to 50 µg/mL (≈ 151 µM); in assay [7] it was 25 µg/mL (≈ 75.4 µM).
